Results as given in ChEMBL document CHEMBL6177991, “Discovery of P11-2: A Potent First-in-Class MNK1-Targeting PROTAC Degrader for the Treatment of Cancer” (J Med Chem, 2025).

How the values were obtained:
Format in all cases: organism-based
Settings in all cases: in vivo, 336 h, time 14 day
[1] = Toxicity in male ICR mouse assessed as histopathological change in liver at 100 mg/kg, ip measured after 14 days by hematoxylin and eosin staining based analysis
[2] = Toxicity in male ICR mouse assessed as change in serum creatinine level at 100 mg/kg, ip measured after 14 days
[3] = Toxicity in male ICR mouse assessed as change in serum uric acid level at 100 mg/kg, ip measured after 14 days

Measured: Activity

O=C1CCC(N2Cc3c(NC(=O)CCCCCC(=O)N4CCC(C(=O)Nc5ncc(-c6ccccc6)s5)CC4)cccc3C2=O)C(=O)N1 (stereo not drawn)
Non-toxic: all assays above
